The results in this text go back to US20100298377A1, “NOVEL SUBSTITUTED INDAZOLES, THE PREPARATION THEREOF AND USE OF SAME IN THERAPEUTICS” (SANOFI-AVENTIS, priority 2007, published 2010).

Data set [1] concerns LNCaP clone FGC cells (human prostate carcinoma cells). Nature of the data set: Proliferation of LNCaP cells, intracellular ATP, CellTiter-Glo test. It counts as cell-based. Conditions: Homo sapiens, LNCaP-Clone-FGC, 96 hours. From the text: (§1) b. Study of the Proliferation of Human Tumoral MIA PaCa-2, C-433, LnCaP and MCF7 Cells via Assay of the Intracellular ATP Using the Celltiter-Glo™ Test
(§2) The kit CellTiter-Glo™ for measuring cell viability via luminescence ([…]) is a homogeneous method for determining the number of viable cells in culture, based on quantification of the ATP present in the cells, and which indicates the presence of metabolically active cells.
(§3) The cell lines used in this test were the following: MIA PaCa-2 cells (human pancreatic carcinoma cells, ATCC, CRL-1420), C-433 cells (human Ewing sarcoma cells, DSMZ, ACC 268), LNCaP clone FGC cells (human prostate carcinoma cells, ATCC, CRL-1740), MCF7 cells (human breast carcinoma cells, ECACC, #86012803). The cells MIAPaCa-2 and LNCaP were cultured in D-MEM culture medium (Invitrogen Gibco, #419656-039) containing 10% foetal calf serum (FCS, Invitrogen Gibco, #10500-064) and 2 mM L-Glutamine (Invitrogen Gibco, #25030-024); the C-433 cells were cultured in MCCoy's 5A culture medium (Invitrogen Gibco, #26600-023)/RPMI 1640 (Invitrogen Gibco, #31870-025) (50/50) containing 10% FCS and 2 mM L-glutamine; the MCF7 cells were cultured in EMEM culture medium (EMEM, Biowhittaker, Lonza, #BE12-662F) containing 10% FCS and 2 mM L-Glutamine.
(§4) Evaluation of the Cell Viability via Luminescence Measurement: Celltiter-Glo™ Test
(§5) On day 1, the cells were inoculated at 1000 (C-433), 2500 (MCF7) and 10000 (LNCaP and MIA PaCa-2) cells per well in black-bottomed 96-well microplates (NUNC fluoronunc, Fisherbioblock 2311K) in 135 μl of whole culture medium and incubated at 37° C., 5% CO2, for 3 to 6 hours. The cells were then incubated with increasing concentrations of molecules diluted in dimethyl sulfoxide (DMSO, Sigma D2650). The molecules were added in a volume of 15 μl of a 10-fold concentrated solution in a final volume of 150 μl, the final percentage of DMSO being 0.1%. The cells were incubated at 37° C., 5% CO2, for 96 hours. After 4 days of treatment with the molecules, the CellTiter-Glo™ was performed by following the manufacturer's instructions (Kit Celltiter-Glo Luminescent, PROMEGA #G7571). Briefly, the cell plates were equilibrated for about 30 minutes at RT and 100 μl per well of Celltiter-Glo reagent were added. The cells were incubated for 1 hour at RT for lysis of the cells and stabilization of the signal. The intracellular ATP was quantified by measuring the luminescence in rlu units (relative luminescence units), 96 hours after initiation of the treatment, using a luminescence counter (Wallac). The tests were performed in six replicates.
(§6) i) the mean±s.e.m. of each series of well replicates was calculated;
(§7) ii) the maximum response is given by positive control wells containing untreated cells; this control was performed in 12 replicates;
(§8) iii) the minimum response is given by cell-free and untreated negative control wells; this control was performed in 6 replicates;
(§9) iv) using these maximum (100%) and minimum (0%) response values, respectively, the data were normalized to give a percentage relative to the maximum response;
(§10) The IC50 values were calculated by […] with the XLfit software (IDBS, UK) using formula 205.

Data set [2] concerns C-433 cells (human Ewing sarcoma cells). Put plainly: Proliferation of C-433 cells, intracellular ATP, CellTiter-Glo test. Conditions: Homo sapiens, 96 hours. It counts as cell-based.
Excerpt: as §1, §2, §3, §4, §5, §6, §7, §8, §9, §10

Data set [3] deals with MCF7 cells (human breast carcinoma cells). Put plainly: Proliferation of MCF7 cells, intracellular ATP, CellTiter-Glo test. The following applies: Homo sapiens, MCF7, 96 hours. It counts as cell-based.
Excerpt: as §1, §2, §3, §4, §5, §6, §7, §8, §9, §10

Compound `CN1CCCCC1C(OC(=O)Nc1ccc2[nH]ncc2c1)c1cc(F)cc(Cl)c1` (stereo not drawn) [Ex 36, (3-Chloro-5-fluorophenyl)(1-methylpiperid-2-yl)methyl 1H-indazol-5-ylcarbamate] yielded an IC50 in data set [1] of 2230 nM.
Still for that read-out and setting: the figure for `O=C(Nc1ccc2[nH]ncc2c1)O[C@H](c1ccc(Cl)c(Cl)c1)[C@H]1CCCCN1` [Ex 37, (R)-(3,4-Dichlorophenyl)[(2R)-piperid-2-yl]methyl 1H-indazol-5-ylcarbamate] is 2370 nM; for `CN1CCCCC1C(NC(=O)Nc1cc(F)c2[nH]ncc2c1)c1ccccc1` [Ex 21, 1-(7-Fluoro-1H-indazol-5-yl)-3-[(1-methylpiperid-2-yl)(phenyl)methyl]urea((S,2S),(R,2R))] it is 861 nM.
For `O=C(Nc1ccc2[nH]ncc2c1)O[C@@H](c1ccc(Cl)c(Cl)c1)[C@@H]1CCCCN1` [Ex 38b, (S)-(3,4-Dichlorophenyl)[(2S)-piperid-2-yl]methyl 1H-indazol-5-ylcarbamate], the IC50 stood at 1790 nM in data set [2], 1710 nM in data set [1] and 2400 nM in data set [3].
Consider `O=C(Nc1ccc2[nH]ncc2c1)O[C@@H](c1cc(F)cc(Cl)c1)[C@@H]1CCCCN1` [Ex 35, (S)-(3-Chloro-5-fluorophenyl)[(2S)-piperid-2-yl]methyl 1H-indazol-5-ylcarbamate], for which the results for the IC50 in data set [1] and in data set [3] were 319 nM and 1050 nM, respectively.
With `O=C(Nc1ccc2[nH]ncc2c1)NC(c1cc(F)cc(Cl)c1)C1CCCCN1` (stereo not drawn) [Ex 5, 1-[(3-Chloro-5-fluorophenyl)(piperid-2-yl)methyl]-3-(1H-indazol-5-yl)urea], the melting point was found to be 185 °C. In data set [3], this compound gave an IC50 of 1420 nM.
Turning to `O=C(Nc1ccc2[nH]ncc2c1)N[C@@H](c1ccc(Cl)c(Cl)c1)[C@@H]1CCCCN1` [Ex 4, 1-{(S)-(3,4-Dichlorophenyl)[(2S)-piperid-2-yl]methyl}-3-(1H-indazol-5-yl)urea], the melting point was 216 °C. The same compound registered a half-inhibitory concentration (IC50) in data set [2] of 680 nM. The IC50 in data set [1] was determined as 1200 nM. In data set [3], this compound displayed an IC50 of 2700 nM.
With `CN1CCCCC1C(NC(=O)Nc1ccc2[nH]nc(C#Cc3cccnc3)c2c1)c1ccccc1` [Ex 25, 1-[(1-Methylpiperid-2-yl)(phenyl)methyl]-3-[3-(pyrid-3-ylethynyl)-1H-indazol-5-yl]urea((S,2S),(R,2R))], the IC50 stood at 288 nM in data set [2], 611 nM in data set [1] and 1290 nM in data set [3].
The corresponding values for `O=C(Nc1ccc2[nH]ncc2c1)O[C@@H](c1cccc(Br)c1)[C@@H]1CCCCN1` [Ex 46] are 500 nM, 600 nM and 1300 nM.
As for `Cc1n[nH]c2ccc(NC(=O)NC(c3ccccc3)C3CCCCN3C)cc12` [Ex 18, 3-Methyl-5-({[(1-methylpiperid-2-yl)(phenyl)methyl]carbamoyl}amino)-1H-indazole ((S,2S),(R,2R))], the IC50 worked out at 1050 nM in data set [1] and 5800 nM in data set [3].
As to `S=C(Nc1ccc2[nH]ncc2c1)N[C@@H](c1ccc(Cl)c(Cl)c1)[C@@H]1CCCCN1` [Ex 31, 1-{(S)-(3,4-Dichlorophenyl)[(2S)-piperid-2-yl]methyl}-3-(1H-indazol-5-yl)thiourea], the values for the IC50 in data set [1] and in data set [3] were 2940 nM and 4450 nM, respectively.
Consider `O=C(Nc1ccc2[nH]ncc2c1)N[C@@H](c1cc(F)cc(Cl)c1)[C@@H]1CCCCN1` [Ex 3, 1-{(S)-(3-Chloro-5-fluorophenyl)[(2S)-piperid-2-yl]methyl}-3-(1H-indazol-5-yl)urea], for which the IC50 in data set [2] amounted to 630 nM; in data set [1], 280 nM; in data set [3] it was 1100 nM.
